These results are taken from patent US20260283983A1, “PHARMACEUTICAL COMPOSITIONS FOR WOUND CARE” (BIO PROTECTANT TECHNOLOGIES, INC., priority 2023, published 2026).

Values after ≈ are worked out from the molar mass of the structure shown. Where a SMILES comes first, the peptide text is derived from it. Bridges are numbered along the chain shown (N, C = ends). [ ]: non-standard residue; d: D form. The star is where a group is joined. Ileψ(thiazoline)Cys = CC[C@H](C)[C@H](N)C1=N[C@H](C(=O)*)CS1; dOrn = NCCC[C@@H](N)C(=O)O

One assay concerns S. mutans. Briefly: S. mutans quantitative biofilm reduction assay. The format is cell-based. The conditions noted are these: same treatment concentration; FIG. 6A-6C. On the procedure: • Day 1: O/N culture of S. mutans • Day 2: Dilute O/N culture 1:9 in BHI • Place discs in 2 mL diluted culture and incubate 24 h • Day 3 Transfer discs to 2 mL BMGS (culture in BMGS for 1-3 days) • Day 4 1-Day: Transfer discs to 2 mL sterilants for desired incubation time • Transfer discs back to 2 mL BMGS for 24 h • 2-Day: Transfer discs to 2 mL BMGS and incubate for another 24 h • Day 5 1-Day: Sonicate disc and plate 100 μL of different dilutions • 2-Day: Transfer discs to 2 mL sterilants for desired incubation time • Transfer discs back to 2 mL BMGS for 24 h • Day 6 1-Day: Count plates • 2-Day: Sonicate disc and plate 100 μL of different dilutions • Day 7 Count plates

The next assay deals with S. aureus ATCC 6538. Briefly: MIC and MBC determination, S. aureus ATCC 6538. The class given is cell-based. Particulars: Staphylococcus aureus. The text has this:
(§1) The MIC and MBC of Formulation B was initially determined using a panel of S. aureus strains (Table 1) including laboratory S. aureus ATCC 6538, bioluminescent S. aureus strain Newman, bioluminescent CA-MRSA strain MW2, and a MRSA clinical isolate.

The next assay has as its system MRSA clinical isolate. Briefly: MIC and MBC determination, MRSA clinical isolate. The format is cell-based, S. aureus. The conditions noted are these: Staphylococcus aureus.
Excerpt: as §1

Assay [1] deals with Bioluminescent CA-MRSA strain MW2. Briefly: MIC and MBC determination, bioluminescent CA-MRSA strain MW2. The class given is cell-based, S. aureus. Particulars: Staphylococcus aureus.
Excerpt: as §1

The test system of assay [2] is Bioluminescent S. aureus strain Newman. The experiment in a line: MIC and MBC determination, bioluminescent S. aureus strain Newman. The class given is cell-based. Particulars: Staphylococcus aureus.
Excerpt: as §1

The subject of assay [3] is bioluminescent MRSA (CA-MRSA). Briefly: Murine model of wound healing (biopsy punch) infected with bioluminescent MRSA. The format is in vivo. The conditions noted are these: mice infected with 1×10^5 CFU bioluminescent MRSA; 20 μL topically three times daily; two week period; FIG. 1A. Here is the method: An exemplary formulation (Formulation A) was tested in the murine model of wound healing (Dunn, Louise, et al. “Murine model of wound healing.” Journal of Visualized Experiments. 75 (2013): e50265-e50265).
• Biopsy punch model performed • Infected with 1×10^5 CFUs bioluminescent MRSA
Wound was imaged then treated with Formulation A
The animals were treated topically with 20 μL of Formulation A, bacitracin, or vehicle three times daily and imaged
The animals were imaged, weight, and their wound was measured daily
The animals were sacrificed and the bacterial burdens were checked in the wound, the liver, the spleen, and the blood.
Tracking of infection and wound healing in mice infected with 1×10^5 CFU bioluminescent MRSA and treated with 20 μL Formulation A, bacitracin (positive control), or vehicle control (N=5 for each treatment group). FIG. 1A: average radiance in the wound bed detected over a two week period. […] Statistical analysis was conducted in GraphPad Prism 6 using a two-way ANOVA test: ***p<0.001; ****p<0.0001. FIG. 1B: box and whisker plots of the wound area over time, beginning on day 4 after the removal of the surgical wound dressing. […] FIG. 1C: plot of the change in weight through the duration of infection and treatment.

Setting [4] is: read-out: Minimum Bactericidal Concentration.
Setting [5] is: read-out: Minimum Inhibitory Concentration.

As to `CCCCCCCCCCCCC[N+](C)(C)Cc1ccccc1` [BAK, benzalkonium chloride], in the assay with S. mutans, the “biofilm accumulation after treatment” value is listed as “approximate equivalence”.
On to `CC[C@H](C)[C@H](N)C1=N[C@H](C(=O)N[C@@H](CC(C)C)C(=O)N[C@H](CCC(=O)O)C(=O)N[C@H](C(=O)N[C@H]2CCCCNC(=O)[C@H](CC(N)=O)NC(=O)[C@@H](CC(=O)O)NC(=O)[C@H](Cc3cnc[nH]3)NC(=O)[C@@H](Cc3ccccc3)NC(=O)[C@H]([C@@H](C)CC)NC(=O)[C@@H](CCCN)NC2=O)[C@@H](C)CC)CS1` [Bacitracin] ({Ileψ(thiazoline)Cys}-L[dE]IK[dOrn]I[dF]H[dD]N; lactam 4-C), for which the MBC in the assay on S. aureus ATCC 6538 (ATCC6538, read-out: Minimum Bactericidal Concentration) was determined as 67 µg/mL (≈ 47.1 µM); with MRSA clinical isolate (setting [4]), 67 µg/mL (≈ 47.1 µM); in assay [1] (setting [4]), 333 µg/mL (≈ 234 µM); in assay [2] (setting [4]), 333 µg/mL (≈ 234 µM). Besides, the MIC in the assay on S. aureus ATCC 6538 (ATCC6538, read-out: Minimum Inhibitory Concentration) was determined as 67 µg/mL (≈ 47.1 µM); in the assay with MRSA clinical isolate (setting [5]) it was 67 µg/mL (≈ 47.1 µM); in assay [1] (setting [5]), 67 µg/mL (≈ 47.1 µM); in assay [2] (setting [5]) it was 67 µg/mL (≈ 47.1 µM). Further, the “bacterial burden, average radiance in the wound bed” value in assay [3] was “completely cleared infection within the first day”.
As to “C12-C14 alkyl(ethylbenzyl)dimethylammonium chloride”, in the assay on S. mutans, the “biofilm accumulation after treatment” value is “approximate equivalence”.
